Experimental data: patent US20250107526A1, “METHOD OF IMPROVING PLANT GROWTH” (UPL CORPORATION LIMITED, priority 2022, published 2025)

Key:
Assay type in all cases: in vivo
wheat grains = assay: Plant growth improvement of wheat grains treated with cyazofamid, field trials
Excerpt: The present inventors have determined the plant growth improvement in wheat grains treated with cyazofamid in field trials. The treatments employed have been depicted in table 4 below. The results in terms of crop establishment in field, root weight, shoot weight and the total plant weight have been indicated in table 5 below: [table]

Cotton seeds = assay: Emergence speed index (ESI) of treated seeds, cotton; conditions: suspension concentrate of 40% cyazofamid
Method: (§1) The seed emergence index was evaluated for seeds of different crops including corn, cotton and wheat treated with cyazofamid. The treatment protocol and the results are disclosed in the table below. […] A suspension concentrate of 40% cyazofamid was used in the treatment.

[1] = system: maize seeds inoculated with Pythium ultimum; assay: Emergence and vigor of maize seeds inoculated with Pythium ultimum after cyazofamid seed treatment (growth chamber); conditions: 160 g/l suspension concentrate, 20 days after sowing
Method: An inoculum of Pythium ultimum isolated from cotton was used to inoculate maize seeds. The infected maize grains were mixed with soil in a ratio of 10:90 v/v, respectively. The seeds were treated as depicted in the Table 1 below. The seeds used in treatments 1, 3 and 4 were inoculated with Pythium ultimum. The said seeds were cultivated in a growth chamber at a temperature of 22° C., for a 10 h dark/14 h light photoperiod. The seed arrangement was 10 seeds/plot (pot 10×10 cm); 3rep1/treatment. [table] The % emergence of seeds and the % vigor was observed 20 days after sowing of seeds.

Corn seeds = assay: Emergence speed index (ESI) of treated seeds, corn; conditions: suspension concentrate of 40% cyazofamid
Method: as §1

Wheat seeds = assay: Emergence speed index (ESI) of treated seeds, wheat; conditions: suspension concentrate of 40% cyazofamid
Method: as §1

[2] = system: seeds of different crops including corn, cotton and wheat
Method: as §1

[3] = 10 g ai/100 kg (25 ml/100 kg seeds)
[4] = 20 g ai/100 kg (50 ml/100 kg seeds)
[5] = 30 g ai/100 kg (75 ml/100 kg seeds)
[6] = 50 g ai/100 kg (125 ml/100 kg seeds)
[7] = 100 g ai/100 kg (250 ml/100 kg seeds)
[8] = seed treatment 10 g/100/kg seeds
[9] = seed treatment 50 g/100/kg seeds

Cc1ccc(-c2c(Cl)nc(C#N)n2S(=O)(=O)N(C)C)cc1 [Cyazofamid, 4-chloro-2-cyano-N, N-dimethyl-5-p-tolylimidazole-1-sulfonamide]
Root weight (wheat grains; [3]): 3.1 g | Shoot weight (wheat grains; [3]): 5.9 g | Total plant weight (wheat grains; [3]): 9.0 g | Crop establishment plants/m row 25 DAA (wheat grains; [3]): 81.5 plants/m row | Crop establishment plants/m row 38 DAA (wheat grains; [3]): 74.5 plants/m row | Root weight (wheat grains; [4]): 3.1 g | Shoot weight (wheat grains; [4]): 5.3 g | Total plant weight (wheat grains; [4]): 8.4 g | Crop establishment plants/m row 25 DAA (wheat grains; [4]): 73.1 plants/m row | Crop establishment plants/m row 38 DAA (wheat grains; [4]): 79.4 plants/m row | Root weight (wheat grains; [5]): 3.8 g | Shoot weight (wheat grains; [5]): 5.4 g | Total plant weight (wheat grains; [5]): 9.2 g | Crop establishment plants/m row 25 DAA (wheat grains; [5]): 74.8 plants/m row | Crop establishment plants/m row 38 DAA (wheat grains; [5]): 80.8 plants/m row | Root weight (wheat grains; [6]): 3.0 g | Shoot weight (wheat grains; [6]): 5.0 g | Total plant weight (wheat grains; [6]): 8.1 g | Crop establishment plants/m row 25 DAA (wheat grains; [6]): 75.6 plants/m row | Crop establishment plants/m row 38 DAA (wheat grains; [6]): 82.5 plants/m row | Root weight (wheat grains; [7]): 2.9 g | Shoot weight (wheat grains; [7]): 5.2 g | Total plant weight (wheat grains; [7]): 8.1 g | Crop establishment plants/m row 25 DAA (wheat grains; [7]): 74.0 plants/m row | Crop establishment plants/m row 38 DAA (wheat grains; [7]): 79.9 plants/m row | crop establishment in field, root weight, shoot weight and total plant weight compared with untreated control (wheat grains; in words, treated wheat grains, 10-100 g ai/100 kg): higher | Emergence speed index (ESI) (Cotton seeds; 10 g ai/100 kg): 6.9 | Emergence speed index (ESI) (Cotton seeds; 50 g ai/100 kg): 6.3 | Emergence speed index (ESI) (Cotton seeds; 100 g ai/100 kg): 6.5 | % emergence (20 DAS) [1, 8]: 76.67% | % vigor (20 DAS) [1, 8]: 86.67% | % emergence (20 DAS) [1, 9]: 73.33% | % vigor (20 DAS) [1, 9]: 83.33% | Emergence speed index (ESI) (Corn seeds; 10 g ai/100 kg): 32.7 | Emergence speed index (ESI) (Corn seeds; 50 g ai/100 kg): 32.9 | Emergence speed index (ESI) (Corn seeds; 100 g ai/100 kg): 32.6 | Emergence speed index (ESI) (Wheat seeds; 10 g ai/100 kg): 22.7 | Emergence speed index (ESI) (Wheat seeds; 50 g ai/100 kg): 23.0 | Emergence speed index (ESI) (Wheat seeds; 100 g ai/100 kg): 22.5 | phytotoxicity in the emergent plants ([2]; in vivo): no phytotoxicity observed | emergence index of treated seeds compared with untreated seeds ([2]; in words, corn, cotton and wheat seeds, 10-100 g ai/100 kg): more efficient than untreated seeds
